Reference: patent US20200371122A1, “BIOMARKER FOR SENESCENT CELLS” (Buck Institute for Research on Aging, priority 2017, published 2020)

What was measured:
[1] = tested on: IMR-90 fibroblasts depleted of p53 by shRNA; assay: Prostaglandin treatment of p53-depleted (shp53) IMR-90 fibroblasts (Ki67, cleaved caspase 3); type: cell-based, human; settings: shp53 cells, 3 days
Description: For EdU labeling, cells were cultured with EdU (10 μM) for 24 h, fixed in 4% buffered formalin for 10 min, washed in PBS, and permeabilized in 0.5% Triton X-100 for 30 min. Cells were treated as instructed by the manufacturer Life Technologies Cat #C10337). For immunofluorescence, cells were blocked in 10% normal goat serum for 30 min, washed, and incubated overnight in antibodies to Ki67 (Abcam) or cleaved caspase 3 (Cell Signaling). Cell were then washed, incubated in fluorescent secondary antibodies, and mounted using vectashield mounting medium with DAPI.

[2] = tested on: bleomycin-induced fibrosis; settings: administration; Kida 2016, Genovese 2005; cited from earlier work
IMR-90 fibroblasts = assay: Induction of senescence in non-senescent cells by prostaglandins or 5-LOX pathway products (EdU, SA-B-gal, p21, immunoblot); type: cell-based, human
Description: RNA was extracted from cells or tissues using commercially available kits (Isolate II—Bioline for cells; Direct-zol—Zymo for tissues) according to the manufacturer's instructions. cDNA synthesis was performed using a High Capacity cDNA Reverse Transcription Kit (Thermo Fisher) according to the manufacturer's instructions. Quantitative PCR was performed on a LightCycler 480 II (Roche) using primers and probes designed for the Universal Probe Library. Primers and probes used for human transcripts were ACTB: 5′-CCAACCGCGAGAAGATGA (SEQ ID NO:1), 5′-TCCATCACGATGCCAGTG (SEQ ID NO:2), Probe #64; TUBA: 5′-cttcgtctccgccatcag (SEQ ID NO:3), 5′-ttgccaatctggacacca (SEQ ID NO:4), Probe #58; ALOX5: 5′-[…] (SEQ ID NO:5), 5′-[…] (SEQ ID NO:6), Probe #64; ALOX5AP: 5′-ggtctgcggggctacttt (SEQ ID NO:7), 5′-[…] (SEQ ID NO:8), Probe #18; ALOX12: 5′-[…] (SEQ ID NO:9), 5′-agccaggtcgtcaggag (SEQ ID NO:10), Probe #32; ALOX15: 5′-[…] (SEQ ID NO:11), 5′-[…] (SEQ ID NO:12), Probe #76; ALOX15B: 5′-[…] (SEQ ID NO:13), 5′-actgggaggcgaagaagg (SEQ ID NO:14), Probe #51; AKR1C1: 5′-catgcctgtcctgggattt (SEQ ID NO:15), 5′-[…] (SEQ ID NO:16), Probe #49; AKR1C2: 5′-ctatgcgcctgcagaggt (SEQ ID NO:17), 5′-[…] (SEQ ID NO:18), Probe #31; AKR1C3: 5′-[…] (SEQ ID NO:19), 5′-[…] (SEQ ID NO:20), Probe #78; CYSLTR2: 5′-[…] (SEQ ID NO:21), 5′-[…] (SEQ ID NO:22), Probe #18; DPEP1: 5′-gacgtcctgaggctggtg (SEQ ID NO:23), 5′-[…] (SEQ ID NO:24), Probe #9 (SEQ ID NO:25), ELOVL2: 5′-[…] (SEQ ID NO:26), 5′-[…] (SEQ ID NO:27), Probe #53; ELOVL4: 5′-catttggcccatggattc (SEQ ID NO:28), 5′-[…] (SEQ ID NO:29), Probe #31; ELOVL5: 5′-cccttccatgcgtccata (SEQ ID NO:30), 5′-[…] (SEQ ID NO:31), Probe #31; EPHX2: 5′-ttctgctggacaccctgaa (SEQ ID NO:32), 5′-[…] (SEQ ID NO:33), Probe #45; GPX4: 5′-ttcccgtgtaaccagttcg (SEQ ID NO:34), 5′-[…] (SEQ ID NO:35), Probe #36; LTA4H: 5′-ctgctctcacggtccagtc (SEQ ID NO:36), 5′-[…] (SEQ ID NO:37), Probe #64; LTBR2: 5′-[…] (SEQ ID NO:38), 5′-[…] (SEQ ID NO:39), Probe #33; LTC4S: 5′-[…] (SEQ ID NO:40), 5′-[…] (SEQ ID NO:41), Probe #18; PTGDS: 5′-[…] (SEQ ID NO:42), 5′-[…] (SEQ ID NO:43), Probe #36; PTGES: 5′-agagatgcctgcccacag (SEQ ID NO:44), 5′-tggccaccacgtacatctt (SEQ ID NO:45), Probe #4; PTGES2: 5′-[…] (SEQ ID NO:46), 5′-[…] (SEQ ID NO:47), Probe #49; PTGES3 (SEQ ID NO:48), 5′-[…] (SEQ ID NO:49), 5′-[…] (SEQ ID NO:50), Probe #48; PTGIS: 5′-[…] (SEQ ID NO:51), 5′-[…] (SEQ ID NO:52), Probe #45; PTGR1: 5′-atgatggggcagcaagtg (SEQ ID NO:53), 5′-cccatcagaaatggagtgc (SEQ ID NO:54), Probe #64; PTGS1: 5′-[…] (SEQ ID NO:55), 5′-gtggtggtccatgttcctg (SEQ ID NO:56), Probe #81; PTGS2: 5′-gatccccagggctcaaac (SEQ ID NO:57), 5′-[…] (SEQ ID NO:58), Probe #61; TBXAS1: 5′-[…] (SEQ ID NO:59), 5′-tgcctcccgtgtgaatct (SEQ ID NO:60), Probe #73; AREG: 5′-[…] (SEQ ID NO:61), 5′-[…] (SEQ ID NO:62), Probe #73; CCL2: 5′-AGTCTCTGCCGCCCTTCT (SEQ ID NO:63), 5′-GTGACTGGGGCATTGATTG (SEQ ID NO:64), Probe #40; CCL27: 5′-[…] (SEQ ID NO:65), 5′-gctgggtggcagtaggaat (SEQ ID NO:66), Probe #18; CXCL1: 5′-[…] (SEQ ID NO:67), 5′-[…] (SEQ ID NO:68), Probe #52; HGF: 5′-[…] (SEQ ID NO:69), 5′-[…] (SEQ ID NO:70), Probe #49; ILIA: 5′-[…] (SEQ ID NO:71), 5′-[…] (SEQ ID NO:72), Probe #6; IL1B: 5′-[…] (SEQ ID NO:73), 5′-[…] (SEQ ID NO:74), Probe #78; IL6: 5′-[…] (SEQ ID NO:75), 5′-gaaggcagcaggcaacac (SEQ ID NO:76), Probe #45; IL8: 5′-[…] (SEQ ID NO:77), 5′-atggttccttccggtggt (SEQ ID NO:78), Probe #72; IL10: 5′-[…] (SEQ ID NO:79), 5′-[…] (SEQ ID NO:80), Probe #67; MMP3: 5′-[…] (SEQ ID NO:81), 5′-[…] (SEQ ID NO:82), Probe #36; PDGFA: 5′-[…] (SEQ ID NO:83), 5′-[…] (SEQ ID NO:84), Probe #80; VEGF: 5′-[…] (SEQ ID NO:85), 5′-[…] (SEQ ID NO:86), Probe #50; P21WAF1(CDKN1A): 5′-[…]

IL-6 secretion = assay: IL-6 ELISA on non-senescent cells treated with prostaglandins; type: cell-based, human; settings: 10 μM, 10 days
Description: Human fetal lung fibroblasts (IMR-90) were cultured in Dulbecco's modified eagle medium (DMEM) supplemented with 10% FBS and penicillin/streptomycin. LL 29 (AnHa) cells were obtained from the ATCC and growth to confluence using the ATCC protocol, but were subcultured as described for IMR-90 before initiation of all experiments. Quiescence was induced by replacing culture media with media containing 0.2% FBS. MCF-7 and MDA-MB-231 breast cancer cells were cultured in RPMI supplemented with 10% FBS and penicillin/streptomycin. All cells were cultured at 3% O2, and used between 25 and 40 population doublings. All cells were mycoplasma free.
3×10^4 cells in 12-well plates were treated as indicated in the text, and cultured in 0.5-1 ml serum-free DMEM for 24 hr. CM were collected and clarified at 2,000×g for 10 min. Supernatants were transferred to a tube; cells were trypsinized and counted. CM (2.5 μl) were analyzed by bead-based ELISAs (AlphaLISA, Perkin-Elmer) as instructed by the manufacturer and normalized to cell number.

CCCCC[C@H](O)/C=C/[C@H]1C(=O)C[C@H](O)[C@@H]1C/C=C\CCCC(=O)O [PGD2, prostaglandin D2]
apoptosis (positivity for cleaved caspase 3) [1]: underwent apoptosis | continued cell division (Ki67 positivity) after loss of p53 [1]: did not allow | bleomycin-induced fibrosis [2]: attenuate | levels of LMNB1 and cellular HMGB1 (IMR-90 fibroblasts; 10 μM, 10 days): reduced levels | p21 gene expression (IMR-90 fibroblasts; 10 μM, 10 days): induced | senescence-associated beta-galactosidase (IMR-90 fibroblasts; 10 μM, 10 days): induced | p21 protein accumulation (IMR-90 fibroblasts; 10 μM, 10 days, immunoblot): induced | p53 stabilization (IMR-90 fibroblasts; 10 μM, 10 days, immunoblot): stabilized | p53 phosphorylation or acetylation (IMR-90 fibroblasts; 10 μM, 10 days, western blot): without increasing | expression of MMP3 and secretion of IL-6 on removal of the prostaglandin (IMR-90 fibroblasts; release after 7 days at 10 μM): reduced | IL-6 secretion (IL-6 secretion): elevated
